Results as given in patent US20210253651A1, “METHOD FOR PRODUCING ORGANIC COMPOUND-ENCAPSULATING FERRITIN” (Ajinomoto Co., Inc., priority 2018, published 2021).
Counter-ions that a name gives are not always drawn. Like-named read-outs stand apart in the source and are kept apart here.

Assays:
[1] = target: T1, FTH-U2AF ferritin (Homo sapiens, UniProt P02794); test: one-step incorporation of DOX into FTH-U2AF ferritin; format: physicochemical; conditions: pH 9, 50° C., 60 minutes, DOX 0.3 mg/L
T1 construct: pET20-FTH carrying a DNA encoding a human-derived ferritin H chain monomer as a template; made in house; host or cells: Escherichia coli BL21 (DE3), plasmid pET20-FTH-U2AF
Method: PCR was carried out using pET20-FTH carrying a DNA encoding a human-derived ferritin H chain monomer as a template as well as the following primers: 5′-[…]-3′ (SEQ ID NO: 18) and 5′-[…]-3′ (SEQ ID NO: 13), in order to obtain a DNA encoding the human-derived ferritin H chain (FTH-U2AF) in which an RNA recognition peptide (U2AF: TRQARR (SEQ ID NO: 17) R Tan and AD Frankel, Proc Natl Acad Sci USA 92, 5282-5286. (1995) which in incorporated herein by reference in its entirety)) is inserted and fused at the C-terminus of the ferritin monomer. The resulting PCR products were purified using Wizard DNA Clean-Up System (Promega Corporation), and then treated with restriction enzymes, DpnI and NdeI (Takara Bio Inc.) for self-ligation in order to construct an expression plasmid (pET20-FTH-U2AF) carrying a gene encoding FTH-U2AF monomer. […]
DOX was mixed with 1 mL of 50 mM Tris-HCl buffer (pH 9) that contains each mutate ferritin at a final concentration of 1 mg/mL, to achieve a final concentration of 0.3 mg/L, and then the resulting solutions were left to stand at 50° C. for 60 minutes. […] The concentration of contained protein was determined using the protein assay CBB solution (Nacalai Tesque, Inc.) as well as bovine albumin as a standard. The DOX concentration was determined based on analysis of the absorbance at 480 nm.

[2] = test system: ferritin; conditions: cited from earlier work

T1 sequence (P02794 with tags, fused parts or gaps): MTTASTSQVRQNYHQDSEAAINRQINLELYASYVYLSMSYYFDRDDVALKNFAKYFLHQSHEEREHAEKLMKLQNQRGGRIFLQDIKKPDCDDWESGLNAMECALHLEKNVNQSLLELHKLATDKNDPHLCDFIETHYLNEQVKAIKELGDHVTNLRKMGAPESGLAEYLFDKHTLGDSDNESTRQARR

COc1cccc2c1C(=O)c1c(O)c3c(c(O)c1C2=O)C[C@@](O)(C(=O)CO)C[C@@H]3OC1CC(N)C(O)C(C)O1 (some centres unmarked) [DOX, Doxorubicin hydrochloride]
incorporation efficiency of the reagent [1]: 17.9 % (wt) | doxorubicin molecules encapsulated in ferritin ([2]; denaturing with urea and refolding): approximately 33 molecules | doxorubicin molecules encapsulated in ferritin ([2]; disassembly at pH 2, reassembly at pH 7-9): approximately 28 molecules | doxorubicin molecules encapsulated in ferritin ([2]; high pressure (200-800 MPa) for 6-20 hours): 10-20 molecules | doxorubicin molecules encapsulated in ferritin ([2]; modified ferritin, pH 2 by addition of HCl): 30-90 molecules
